From patent US4229573A, “7α-Methoxycephalosporin derivatives” (Asahi Kasei Kogyo Kabushiki Kaisha, priority 1977, dated 1980)
In brackets after ≈: the same amount, converted by molar mass. Where two headings read alike, the source gives them in different places.

What was measured:
Assay in all cases: Minimum inhibitory concentration (MIC) against bacteria
Assay type in all cases: cell-based
[1] = system: Enterobacter cloacae GN 336; details: GN336
Excerpt: (§1) In an antimicrobial spectrum, a minimum inhibitory concentration (MIC) against a bacterium is expressed in terms of μg/ml.

Escherichia coli, NIHJ = system: Escherichia coli, NIHJ
Excerpt: as §1

[2] = system: Klebsiella pheumoniae, ATCC 10031
Excerpt: as §1

[3] = system: Citrobacter freundii GN 346; details: GN346
Excerpt: as §1

[4] = system: Staphylococcus aureus, ATCC MS 27
Excerpt: as §1

[5] = system: Salmonella enteritidis gaertner
Excerpt: as §1

Proteus morganii 0239 = system: Proteus morganii 0239
Excerpt: as §1

[6] = system: Staphylococcus aureus, ATCC 6538 P
Excerpt: as §1

Proteus rettgeri, ACR = system: Proteus rettgeri, ACR
Excerpt: as §1

Proteus mirabilis = system: Proteus mirabilis
Excerpt: as §1

Escherichia coli, 0205 = system: Escherichia coli, 0205
Excerpt: as §1

[7] = Enterobacter cloacae GN 336, read-out: MIC
[8] = ATCC10031, Klebsiella pheumoniae, ATCC 10031, read-out: MIC
[9] = Citrobacter freundii GN 346, read-out: MIC
[10] = ATCCMS27, ATCC MS 27, read-out: MIC
[11] = Salmonella enterica, Salmonella enteritidis gaertner, read-out: MIC
[12] = Morganella morganii, Proteus morganii 0239, read-out: MIC
[13] = ATCC6538, ATCC 6538 P, read-out: MIC
[14] = Providencia rettgeri, Proteus rettgeri, ACR, read-out: MIC

MIC [1, 7] [mg/L] | MIC (Escherichia coli, NIHJ; read-out: MIC) [mg/L] | MIC [2, 8] [mg/L] | MIC [3, 9] [mg/L] | MIC [4, 10] [mg/L] | MIC [5, 11] [mg/L] | MIC (Proteus morganii 0239; [12]) [mg/L] | MIC [6, 13] [mg/L] | MIC (Proteus rettgeri, ACR; [14]) [mg/L] | MIC (Proteus mirabilis; read-out: MIC) [mg/L] | MIC (Escherichia coli, 0205; read-out: MIC) [mg/L] | Compound | MIC ([1]; Enterobacter cloacae) [mg/L] | MIC ([3]; Citrobacter freundii) [mg/L] | MIC (Proteus mirabilis) [mg/L] | also measured
> 100 | 1.6 (≈ 3.52 µM) | 1.6 (≈ 3.52 µM) | > 100 | 0.8 (≈ 1.76 µM) | 1.6 (≈ 3.52 µM) | > 100 | ≤ 0.2 | > 100 | 3.1 (≈ 6.82 µM) | 12.5 (≈ 27.5 µM) | Cc1nnc(SCC2=C(C(=O)O)N3C(=O)[C@@H](NC(=O)Cn4cnnn4)[C@H]3SC2)s1 [Cefazolin, 7-(1H-Tetrazol-1-ylacetamido)-3-(5-methyl-1,3,4-thiadiazol-2-ylthiomethyl)-3-cephem-4-carboxylic acid] |  |  |  | 
 |  |  |  |  |  |  |  |  |  |  | CO[C@@]1(NC(=O)C[S+]([O-])c2cccs2)C(=O)N2C(C(=O)[O-])=C(CSc3nnnn3C)CS[C@@H]21.[Na+] (stereo partly drawn) [Example 23, sodium 7β-(2-thienylsulfinylacetamido)-7α-methoxy-3-(1-methyl-1H-tetrazol-5-ylthiomethyl)-3-cephem-4-carboxylate] |  |  |  | MIC (Escherichia coli, 0205; text of Example 23 (sodium salt)): 3.1 mg/L
100 (≈ 200 µM) | 0.8 (≈ 1.6 µM) | ≤ 0.2 | > 100 | 0.4 (≈ 0.799 µM) | ≤ 0.2 | > 100 | ≤ 0.2 | 25 (≈ 49.9 µM) | 0.8 (≈ 1.6 µM) | 25 (≈ 49.9 µM) | Cn1nnnc1SCC1=C(C(=O)O)N2C(=O)C(NC(=O)C[S+]([O-])c3cccs3)[C@H]2SC1 (stereo partly drawn) [A, 7-(2-Thienylsulfinylacetamido)-3-(1-methyl-1H-tetrazol-5-ylthiomethyl)-3-cephem-4-carboxylic acid] |  |  |  | 
 |  |  |  |  |  |  |  |  |  |  | CO[C@@]1(NC(=O)C[S+]([O-])c2cccs2)C(=O)N2C(C(=O)O)=C(CSc3nnnn3C)CS[C@@H]21 (stereo partly drawn) [Example 21, 7β-(2-Thienylsulfinylacetamido)-7α-methoxy-3-(1-methyl-1H-tetrazol-5-ylthiomethyl)-3-cephem-4-carboxylic acid] | 25 (≈ 47.1 µM) | 100 (≈ 188 µM) | 0.8 (≈ 1.51 µM) | MIC (Escherichia coli, NIHJ): 1.6 mg/L (≈ 3.02 µM); MIC ([2]; Klebsiella pheumoniae, ATCC 10031): ≤ 0.2 mg/L; MIC ([4]; ATCC MS 27): 0.8 mg/L (≈ 1.51 µM); MIC ([5]; Salmonella enteritidis gaertner): ≤ 0.2 mg/L; MIC (Proteus morganii 0239; Proteus morganii 0239): 12.5 mg/L (≈ 23.6 µM); MIC ([6]; ATCC 6538 P): 0.8 mg/L (≈ 1.51 µM); MIC (Proteus rettgeri, ACR; Proteus rettgeri, ACR): 6.3 mg/L (≈ 11.9 µM); MIC (Escherichia coli, 0205): 3.1 mg/L (≈ 5.84 µM)

Compound | MIC [1, 7] [mg/L] | MIC (Escherichia coli, NIHJ; read-out: MIC) [mg/L] | MIC [2, 8] [mg/L] | MIC [3, 9] [mg/L] | MIC [4, 10] [mg/L] | MIC [5, 11] [mg/L] | MIC (Proteus morganii 0239; [12]) [mg/L] | MIC [6, 13] [mg/L] | MIC (Proteus rettgeri, ACR; [14]) [mg/L] | MIC (Proteus mirabilis; read-out: MIC) [mg/L] | MIC (Escherichia coli, 0205; read-out: MIC) [mg/L] | MIC ([1]; Enterobacter cloacae) [mg/L] | MIC ([3]; Citrobacter freundii) [mg/L] | MIC (Proteus mirabilis) [mg/L] | also measured
CC(=O)OCC1=C(C(=O)O)N2C(=O)[C@@H](NC(=O)Cc3cccs3)[C@H]2SC1 [Cephalothin, 7-(2-Thienylacetamido)-3-acetoxymethyl-3-cephem-4-carboxylic acid] |  | 6.3 (≈ 15.9 µM) |  |  |  |  |  |  |  |  | > 100 | > 100 | > 100 | 6.3 (≈ 15.9 µM) | MIC ([2]; Klebsiella, ATCC10031): 0.8 mg/L (≈ 2.02 µM); MIC ([4]; ATCCMS27): 0.4 mg/L (≈ 1.01 µM); MIC ([5]; Salmonella enterica, ENTERITIDIS): 1.6 mg/L (≈ 4.04 µM); MIC (Proteus morganii 0239; Morganella morganii, 0239): > 100 mg/L; MIC ([6]; ATCC6538): ≤ 0.2 mg/L; MIC (Proteus rettgeri, ACR; Providencia rettgeri): > 100 mg/L
